Laboratory results reported in publication PMC8760490, “Discovery of novel furanylbenzamide inhibitors that target oncogenic tyrosine phosphatase SHP2 in leukemia cells” (The Journal of Biological Chemistry, 2021).

Target: T1, PTP1B (1–300) catalytic domain (Homo sapiens, UniProt P18031)
T1 construct: Recombinant human PTP1B (1–300); His tag (pET-15b) (N); made in house; host or cells: E. coli BL21(DE3)
T1 sequence (P18031 1-300): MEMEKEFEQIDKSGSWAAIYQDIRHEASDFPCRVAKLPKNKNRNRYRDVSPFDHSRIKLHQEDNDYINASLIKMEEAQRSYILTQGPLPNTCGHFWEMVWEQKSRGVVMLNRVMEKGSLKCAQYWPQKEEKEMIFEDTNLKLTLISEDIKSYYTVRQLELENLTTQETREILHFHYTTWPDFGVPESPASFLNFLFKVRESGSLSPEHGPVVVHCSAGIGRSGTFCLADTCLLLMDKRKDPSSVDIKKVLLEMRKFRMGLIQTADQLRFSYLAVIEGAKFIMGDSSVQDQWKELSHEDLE
Test: DiFMUP phosphatase inhibition assay, PTP1B
Type: biochemical
Conditions: for IC50: catalytic domain, DiFMUP at Km (25 μM); for selectivity for SHP2 over PTP1B: from IC50 values against catalytic domains
Description: Selectivity is one of the biggest challenges in PTP inhibitor development. […] Similar to SHP2, we adapted a 384-well plate format DiFMUP assay for recombinant PTP1B and STEP and performed Michaelis–Menten experiments to determine DiFMUP Km values for each phosphatase. IC50 values of our inhibitors for PTP1B and STEP were determined in 10-point dose–response assays with DiFMUP used at the concentration corresponding to the respective Km value. […] Other inhibitors with good relative selectivity for SHP2 included SBI-4668 (13-fold selective over PTP1B; 73-fold selective over STEP) and SBI-3404 (fivefold selective over PTP1B; >71-fold selective over STEP).
Recombinant human full-length SHP2 (1–594) WT and E76K mutants, as well as the SHP2cat (248–527), were expressed and purified as described before ([36], [41]). Recombinant human PTP1B (1–300) and the codon-optimized STEP (280–566) catalytic domains were cloned into PET-15b and expressed as N-His-tagged fusion proteins. For expression, transformed BL21(DE3) cells were grown and induced similar as described for SHP2. Collected cells were resuspended in lysis buffer (25 mM Tris, pH 7.5, 300 mM NaCl, 50 mM imidazole, and 10% glycerol) with 100 mg/l RNaseA and were lysed with two passages using a microfluidizer. The lysate was clarified by centrifugation at 15,000g for 50 min and applied to nickel–nitrilotriacetic acid resin. The column resin was washed, and the PTP1B or STEP protein was eluted in lysis buffer at 300 mM imidazole. The PTP1B or STEP protein was further purified by S75 size-exclusion chromatography in 50 mM Tris, pH 7.5, 50 mM NaCl. The eluted peak fractions were supplemented with tris(2-carboxyethyl)phosphine to 10 mM, concentrated by ultrafiltration, and stored at −80 °C. The purified yield of PTP1B was 33 mg/l cell culture; the yield of STEP was 16 mg/l cell culture.
SHP2 inhibitors were tested at RT in a 384-well plate format standard phosphatase fluorescence intensity assay using DiFMUP (Invitrogen/Thermo Fisher Scientific) as a substrate and a total reaction volume of 25 μl. SHP2 inhibitors or vehicle (DMSO) were spotted in triplicate into a black Greiner FLUOTRAC 200 384-well microplate (catalog no.: 781076; Greiner) for a 10-point dose–response assay using an Echo 555 Liquid Handler (Labcyte, Inc). PTP working solutions were prepared at a 0.625 nM concentration (for a final concentration of 0.5 nM) in buffer containing 50 mM Bis–Tris, pH 6.0, 50 mM NaCl, 5 mM DTT, and 0.01% Tween-20. Prior to the assay, a dually phosphorylated IRS-1 peptide (625 nM [500 nM final] ([30])) was added to full-length WT SHP2 working solutions and incubated for 20 min. DiFMUP working solutions at 5× final concentration were prepared in 50 mM Bis–Tris, pH 6.0, 50 mM NaCl, and 0.01% Tween-20. About 20 μl of PTP working solution was dispensed into the microplate and incubated with inhibitor for 20 min at RT. […] The reaction was initiated by addition of 5 μl DiFMUP working solutions. Fluorescence intensity was measured in kinetic mode (every minute for 7 or 10 min) using a Tecan Spark Multimode Microplate Reader (Tecan) with an excitation wavelength of 360 nm and an emission wavelength of 460 nm. The initial rates were determined from the linear progression curves of the PTP reaction. The nonenzymatic hydrolysis of the substrate was corrected by using a control without addition of enzyme. IC50 values were calculated from the corrected initial rates by nonlinear regression using the program GraphPad Prism, version 8 (GraphPad Software, Inc) software. Dose–response inhibition assays of SHP2cat using the substrate OMFP were performed similarly as described previously for DiFMUP. OMFP was used at a concentration corresponding to its Km value for SHP2cat (50 μM final). Fluorescence intensity was measured in kinetic mode (every minute for 10 min) using a Tecan Spark Multimode Microplate Reader with an excitation wavelength of 485 nm and an emission wavelength of 535 nm. […]

| Structure (SMILES) | IC50 [µM] | selectivity for SHP2 over PTP1B |
| --- | --- | --- |
| N#Cc1cc(-c2ccc(/C=C3\Sc4ccccc4C3=O)o2)ccc1O [SBI-3404, (Z)-2-Hydroxy-5-(5-((3-oxobenzo[b]thiophen-2(3H)-ylidene)methyl)furan-2-yl)benzonitrile] | 7.4 | fivefold |
| O=C(Nc1ccccc1)c1cc(-c2ccc(/C=C3\Sc4ccccc4C3=O)o2)ccc1O [SBI-4668, (Z)-2-Hydroxy-5-(5-((3-oxobenzo[b]thiophen-2(3H)-ylidene)methyl)furan-2-yl)-N-phenylbenzamide] | 9.4 | 13 fold |

Stronger by IC50, values ahead:

| IC50 [µM] | selectivity for SHP2 over PTP1B | Structure (SMILES) |
| --- | --- | --- |
| 6.8 | 31 fold | Nc1ccc(NC(=O)c2cc(-c3ccc(/C=C4\Sc5ccccc5C4=O)o3)ccc2O)cc1 [SBI-2130, (Z)-N-(4-Aminophenyl)-2-hydroxy-5-(5-((3-oxobenzo[b]thiophen-2(3H)-ylidene)methyl)furan-2-yl)benzamide] |
| 1.9 | – | O=C1CCCC1=Cc1ccc(-c2ccc(O)c(C(=O)Nc3ccccc3)c2)o1 [SBI-3192, 2-Hydroxy-5-(5-((2-oxocyclopentylidene)methyl)furan-2-yl)-N-phenylbenzamide] |
| 5.3 | – | O=C1/C(=C/c2ccc(-c3ccc(O)c(-c4nn[nH]n4)c3)o2)Sc2ccccc21 [SBI-3405, (Z)-2-((5-(4-Hydroxy-3-(2H-tetrazol-5-yl)phenyl)furan-2-yl)methylene)benzo[b]thiophen-3(2H)-one] |
